Test [1] has as its system LS-411N (Colorectal Carcinoma). Nature of the test: combination Emax (second highest fraction inhibited in the dose matrix, 72 h); higher = more inhibition; extreme values may be limits of the assay. The essentials:
(§1)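 After 24 hours at 37°C and 5% CO2 in 1536-well plates, cells in DMEM/F12 or RPMI plus 10% FBS received two-drug dose matrices for 72 hours. Viability came from CellTiter-Glo 2.0 luminescence and was scaled as inhibition, anchored at 0 by vehicle wells and at 1 by blank wells. Combination Emax is taken as the second-highest inhibition in the matrix, and Bliss excess as the observed combination effect less EA + EB − EA·EB, with EA and EB the single-agent effects.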

The subject of a further test is AU565 (Breast Carcinoma). The test is described as above. A digest of the protocol: as §1
Test [2] deals with OACp4C (Esophageal Adenocarcinoma). The test is described as above. A digest of the protocol:
as §1

Test [3] concerns TE-10 (Esophageal Squamous Cell Carcinoma). The test is described as above. A digest of the protocol:
as §1

Test [4] has as its system JIMT-1 (Breast Carcinoma). The description is as above. The essentials:
as §1

Test [5] relates to HCC1428 (Breast Carcinoma). The test is described as above. A digest of the protocol:
as §1

Another test relates to RH-41 (Rhabdomyosarcoma). The description is as above. The essentials:
as §1

For the next test, the system named is A101D (Melanoma). The test is described as above. A digest of the protocol:
as §1

Test [6] concerns G-402 (Other Solid Carcinomas). The test is described as above. The essentials: as §1
Test [7] deals with NCI-H716 (Colorectal Carcinoma). The test is described as above. A digest of the protocol: as §1
For test [8], the system named is CESS (Acute Myeloid Leukemia). Described as above. The essentials:
as §1

The subject of test [9] is UACC-812 (Breast Carcinoma). The test is described as above. The essentials: as §1
Test [10] has as its system DU-4475 (Breast Carcinoma). Described as above. A digest of the protocol:
as §1

Test [11] relates to Jurkat (T-Lymphoblastic Leukemia). Described as above. A digest of the protocol:
as §1

In test [12] the test system is GA-10 (Burkitt's Lymphoma). The description is as above. A digest of the protocol:
as §1

The test system of another test is 5637 (Bladder Carcinoma). The test is described as above. A digest of the protocol:
as §1

Test [13] deals with A253 (Head and Neck Carcinoma). The description is as above. A digest of the protocol: as §1
The test system of test [14] is DMS-53 (Small Cell Lung Carcinoma). The description is as above. The essentials: as §1
In the next test the test system is COLO-792 (Melanoma). The description is as above. A digest of the protocol:
as §1

For test [15], the system named is huH-1 (Hepatocellular Carcinoma). Nature of the test: Bliss excess, mean over the matrix (fraction); higher = more synergy. A digest of the protocol:
as §1
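Wherever Bliss excess, mean over the matrix is given: after 72 h of two-drug dosing.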

As to `COc1cc2c(cc1OCCCCCOc1cc3c(cc1OC)C(=O)N1C=C(C)C[C@H]1C=N3)N=C[C@@H]1CC(C)=CN1C2=O` [SG3199] + O=C(c1cc(Cc2n[nH]c(=O)c3ccccc23)ccc1F)N1CCN(C(=O)C2CC2)CC1 [Olaparib] (first compound max 0.001 µM, 7x7, partner max 10 µM), the “combination Emax” value in test [1] came to 0.0262; in the test on AU565 (Breast Carcinoma) it was 0.138; in [2] it was 0.136; in test [3], 0.107; in test [4], 0.139; in test [5], 0.0458. The “combination Emax” value with RH-41 (Rhabdomyosarcoma) is 0.245; in the test on A101D (Melanoma), 0.214; in [6] it was 0.364; in [7] it was 0.233; in test [8], 0.182; in [9], 0.134. Also, the “combination Emax” value in test [10] is 0.838; in test [11], 0.356; in test [12], 0.324; with 5637 (Bladder Carcinoma), 0.187; in test [13] it was 0.0649; in [14], 0.153. Further, the “combination Emax” value in the test with COLO-792 (Melanoma) worked out at 0.109. Besides, in test [15], the Bliss excess is -0.0278.

The values are drawn from the supplement of paper PMC11061612.
